Results taken from paper PMC11476342 (Cancers, 2024).
“And” between values parts separate entries of the source, which are not always exact repeats. Identical values can stand only once. Like-named read-outs stand apart in the source and are kept apart here.

Experiments:
HBLAK = assay: MTT cell viability assay, non-cancer cell line; type: cell-based, human; details: for reduction of cell viability: entinostat and/or JQ1 in the absence of cisplatin (Figure 15a)
Procedure: (§1) The cell viability for determination of IC50 values and synergism studies was analyzed by MTT assay as previously described. […] For preincubation experiments, 1600 c/w (cells per well) for J82 and 1200 c/w for J82 cisR were used. After the incubation time, 25 µL MTT (3-(4,5-dimethylthiazol-2-yl)-2,5-diphenyltetrazolium bromide, Serva, Heidelberg, Germany) solution (5 mg/mL in phosphate-buffered saline) was added. The formazan was dissolved in 75 µL DMSO, and the absorption was measured at 540 nm and 690 nm with a microplate reader (ThermoFisher Multiskan, Thermo Scientific, Wesel, Germany).

HEK293 = assay: MTT cell viability assay, non-cancer cell line; type: cell-based, human; details: for reduction of cell viability: entinostat and/or JQ1 in the absence of cisplatin (Figure 15b,c)
Procedure: as §1

J82 cisR [1] = assay: MTT cell viability assay; type: cell-based, human
Procedure: as §1

T24 = assay: MTT cell viability assay; type: cell-based, human
Procedure: as §1

T24 LTT = assay: MTT cell viability assay; type: cell-based, human
Procedure: as §1

J82 [2] = assay: MTT cell viability assay; type: cell-based, human
Procedure: as §1

J82 [3] = assay: RT-qPCR gene expression; type: cell-based, human; details: 48 h; ENT 0.316 µM; JQ1 1 µM; ENT + JQ1 0.316 + 1 µM
From the text: (§2) RNA was isolated using the RNeasy Mini Kit (Qiagen, Hilden, Germany). Subsequently, the RNA was transcribed into cDNA using the High-Capacity cDNA Reverse Transcription Kit (Thermo Scientific, Wesel, Germany). For an RT-PCR, GoTaq qPCR Master Mix (Promega, Fitchburg, WI, USA) and a CFX96 Real-Time System (BIO-RAD, Hercules, CA, USA) were used. The relative changes in gene expression were normalized to the control genes GUSB (beta-glucuronidase), TBP (TATA binding protein), and HPRT1 (hypoxanthine–guanine phosphoribosyltransferase) by Vandesompele method [54].

J82 cisR [4] = assay: RT-qPCR gene expression; type: cell-based, human; details: 48 h; ENT 0.316 µM; JQ1 0.1 µM; ENT + JQ1 0.316 + 0.1 µM
From the text: as §2

[5] = cited from earlier work
[6] = MTT, 72 h, compound alone, read-out: IC50 ± SD
[7] = read-out: Cisplatin IC50 ± SD, control, then cisplatin 72 h
[8] = 72 h co-incubation with 0.316 µM ENT
[9] = MTT, 72 h, compound alone, listed as cisplatin, read-out: IC50 ± SD
[10] = read-out: Cisplatin IC50 ± SD, control: untreated 48 h, then cisplatin 72 h
[11] = read-out: Cisplatin IC50 ± SD, control: untreated 48 h, then cisplatin 72 h, listed as cisplatin
[12] = Homo sapiens, MTT, 72 h, compound alone, read-out: IC50 ± SD
[13] = Homo sapiens, HEK293, MTT, 72 h, compound alone, read-out: IC50 ± SD
[14] = 48 h preincubation with the other inhibitor (ENT after 0.1 µM JQ1; JQ1 after 0.316 µM ENT), then another 72 h
[15] = 72 h co-incubation with the other epigenetic inhibitor: ENT with 0.1 µM JQ1, JQ1 with 0.316 µM ENT
[16] = Homo sapiens, 72 h, MTT, 72 h, compound alone, read-out: IC50 ± SD
[17] = Homo sapiens, control of the 48 h preincubation scheme, compound 72 h, read-out: IC50 ± SD
[18] = Homo sapiens, T-24, MTT, 72 h, compound alone, read-out: IC50 ± SD
[19] = 48 h preincubation with the other inhibitor (ENT after 1 µM JQ1; JQ1 after 0.316 µM ENT), then another 72 h
[20] = 72 h co-incubation with the other epigenetic inhibitor: ENT with 1 µM JQ1, JQ1 with 0.316 µM ENT
[21] = Homo sapiens, J82, 72 h, MTT, 72 h, compound alone, read-out: IC50 ± SD
[22] = Homo sapiens, J82, control of the 48 h preincubation scheme, compound 72 h, read-out: IC50 ± SD

For `N.N.[Cl][Pt][Cl]` [Cisplatin, cisplatin], the IC50 (HBLAK; [6]) was 1710 ± 90 nM, the IC50 (HBLAK; [7]) was 3380 ± 180 nM and the IC50 (HEK293; [6]) was 3.36 ± 0.09 µM. It also gave an IC50 (HEK293; [7]) of 6.26 ± 0.21 µM, an SF (J82 cisR [1]; 72 h co-incubation with 0.1 µM JQ1) of 0.98 and an SF (J82 cisR [1]; [8]) of 1.60. The SF (J82 cisR [1]; 72 h co-incubation with 0.316 µM ENT + 0.1 µM JQ1) was 1.56, the cisplatin-resistance factor (J82 cisR [1]; J82 cisR vs J82) was 3.8 and the IC50 (J82 cisR [1]; [9]) was 6.17 ± 0.23 µM. For the same compound, the IC50 (J82 cisR [1]; [6]) was 7.16 ± 0.24 µM, the IC50 (J82 cisR [1]; [10]) was 8.49 µM and 7.8 µM and the IC50 (J82 cisR [1]; [11]) was 7.64 ± 0.38 µM. The SF (T24; 72 h co-incubation with 0.3 µM JQ1) was 1.88, the SF (T24; [8]) was 1.02 and the SF (T24; 72 h co-incubation with 0.316 µM ENT + 0.3 µM JQ1) was 1.54. It also gave an IC50 (T24; [9]) of 1.97 ± 0.06 µM, an IC50 (T24; [6]) of 2.99 ± 0.12 µM and an IC50 (T24; [10]) of 4.15 ± 0.12 µM. The IC50 (T24; [11]) was 3.23 ± 0.1 µM, the SF (T24 LTT; [8]) was 1.71 and the SF (T24 LTT; 72 h co-incubation with 0.316 µM ENT + 0.075 µM JQ1) was 1.55. It also gave an IC50 (T24 LTT; [9]) of 65.3 ± 4.17 µM, an IC50 (T24 LTT; [6]) of 72.2 ± 3.57 µM and a cisplatin-resistance factor (T24 LTT; T24 LTT vs T24) of 24. For the same compound, the IC50 (T24 LTT; [10]) was 75 ± 2.85 µM, the IC50 (T24 LTT; [11]) was 58.7 ± 2.6 µM and the SF (J82 [2]; [8]) was 1.74. It also gave an SF (J82 [2]; 72 h co-incubation with 0.316 µM ENT + 1 µM JQ1) of 3.05, an SF (J82 [2]; 72 h co-incubation with 1 µM JQ1) of 1.90 and an IC50 (J82 [2]; [9]) of 2.49 ± 0.12 µM. For the same compound, the IC50 (J82 [2]; [6]) was 1.87 ± 0.06 µM, the IC50 (J82 [2]; [10]) was 2.16 µM and 3.02 µM and the IC50 (J82 [2]; [11]) was 2.98 ± 0.21 µM.
In the case of `Nc1ccccc1NC(=O)c1ccc(CNC(=O)OCc2cccnc2)cc1` [Entinostat, entinostat], the IC50 (HBLAK; [12]) is reported as 1450 ± 180 nM, the “reduction of cell viability” value (HBLAK) is reported as 60–65% and the IC50 (HEK293; [13]) is reported as 4.47 ± 0.77 µM. For the same compound, the “reduction of cell viability” value (HEK293) was “up to 20%”, the “Bim gene expression, decadic logarithm of normalized expression” value (J82 [3]) was -0.015 and the “FOXO1 gene expression, decadic logarithm of normalized expression” value (J82 [3]) was -0.054. The “FOXO3a gene expression, decadic logarithm of normalized expression” value (J82 [3]) was -0.125, the “p53 gene expression, decadic logarithm of normalized expression” value (J82 [3]) was -0.125 and the “survivin gene expression, decadic logarithm of normalized expression” value (J82 [3]) was -0.149. It also gave an SF (J82 cisR [1]; [14]) of 1.45, an SF (J82 cisR [1]; [15]) of 1.97 and an IC50 (J82 cisR [1]; [16]) of 10.4 ± 0.94 µM. The IC50 (J82 cisR [1]; [17]) was 9.38 ± 0.89 µM, the IC50 (J82 cisR [1]; [6]) was 7.6 ± 0.59 µM and the IC50 (T24; [18]) was 5.68 ± 0.51 µM. For the same compound, the IC50 (T24 LTT; [12]) was 1.38 ± 0.1 µM, the SF (J82 [2]; [19]) was 1.44 and the SF (J82 [2]; [20]) was 1.68. The IC50 (J82 [2]; [21]) was 12.3 ± 1.08 µM, the IC50 (J82 [2]; [22]) was 9.59 ± 0.81 µM and the IC50 (J82 [2]; [6]) was 10.4 ± 0.89 µM. For the same compound, the “Bim gene expression, decadic logarithm of normalized expression” value (J82 cisR [4]) was -0.110, the “FOXO1 gene expression, decadic logarithm of normalized expression” value (J82 cisR [4]) was 0.087 and the “FOXO3a gene expression, decadic logarithm of normalized expression” value (J82 cisR [4]) was -0.030. The “p21 gene expression, decadic logarithm of normalized expression” value (J82 cisR [4]) was 0.049, the “p53 gene expression, decadic logarithm of normalized expression” value (J82 cisR [4]) was -0.202 and the “survivin gene expression, decadic logarithm of normalized expression” value (J82 cisR [4]) was -0.100.
For `Cc1sc2c(c1C)C(c1ccc(Cl)cc1)=NC(CC(=O)OC(C)(C)C)c1nnc(C)n1-2` (centres unmarked) [JQ1], the bioavailability ([5]; OTX015: oral, in contrast to JQ1) is given as “limited”, the half-life ([5]; in vivo, OTX015 in contrast to JQ1) is given as “very short” and the IC50 (HBLAK; Homo sapiens, 72 h, read-out: IC50 ± SD) is given as 2370 ± 410 nM. The “reduction of cell viability” value (HBLAK) was 60–65%, the IC50 (HEK293; [13]) was 1.41 ± 0.26 µM and the “reduction of cell viability” value (HEK293) was “up to 20%”. The “Bim gene expression, decadic logarithm of normalized expression” value (J82 [3]) was 0.283, the “FOXO1 gene expression, decadic logarithm of normalized expression” value (J82 [3]) was 0.260 and the “FOXO3a gene expression, decadic logarithm of normalized expression” value (J82 [3]) was 0.128. The “p21 gene expression, decadic logarithm of normalized expression” value (J82 [3]) was 0.654, the “p53 gene expression, decadic logarithm of normalized expression” value (J82 [3]) was -0.097 and the “survivin gene expression, decadic logarithm of normalized expression” value (J82 [3]) was -0.002. It also gave an SF (J82 cisR [1]; [14]) of 1.21, an SF (J82 cisR [1]; [15]) of 1.71 and an IC50 (J82 cisR [1]; [16]) of 2.64 ± 0.52 µM. For the same compound, the IC50 (J82 cisR [1]; [17]) was 2.41 ± 0.51 µM, the “fold lower sensitivity of J82 than J82 cisR” value (J82 cisR [1]; MTT, 72 h) was 8.4 fold and the IC50 (J82 cisR [1]; [6]) was 2.22 ± 0.41 µM. The IC50 (T24; [18]) was 2.29 ± 0.42 µM, the IC50 (T24 LTT; [12]) was 0.6 ± 0.08 µM and the “fold lower IC50 in T24 LTT than T24” value (T24 LTT; MTT, 72 h) was 4 fold. It also gave an SF (J82 [2]; [19]) of 1.28, an SF (J82 [2]; [20]) of 0.84 and an IC50 (J82 [2]; [21]) of 21.5 ± 4.05 µM. The IC50 (J82 [2]; [22]) was 21.6 ± 4.99 µM, the IC50 (J82 [2]; [6]) was 18.8 ± 1.55 µM and the “Bim gene expression, decadic logarithm of normalized expression” value (J82 cisR [4]) was 0.534. For the same compound, the “FOXO1 gene expression, decadic logarithm of normalized expression” value (J82 cisR [4]) was 0.410, the “FOXO3a gene expression, decadic logarithm of normalized expression” value (J82 cisR [4]) was 0.438 and the “p21 gene expression, decadic logarithm of normalized expression” value (J82 cisR [4]) was 0.581. For the same compound, the “p53 gene expression, decadic logarithm of normalized expression” value (J82 cisR [4]) was 0.347 and the “survivin gene expression, decadic logarithm of normalized expression” value (J82 cisR [4]) was 0.435.
